pIC50: −log10 of the molar value. No end group written: not given here.
target: T1, human PCNA recombinant protein (Homo sapiens, UniProt P12004); assay: Fluorescent polarization assay: competition with 5-FAM-labeled PL peptide for PCNA; format: binding; conditions: Table 2; inhibition of FAM-PL peptide binding to PCNA; read-out: IC50
T1 construct: The full length human PCNA; made in house; host or cells: Escherichia coli BL21(DE3)
From the text: To determine the binding of the disclosed compounds to the human PCNA recombinant protein, a fluorescence polarization assay was employed. The assay is based on competition between a fluorescent tracer and increasing amounts of competing compound, i.e. a disclosed compound, determined as fluorescence polarization intensity (mP). The fluorescent tracer was 5-carboxyfluorescein (5-FAM) labeled PL peptide (“FAM-PL”). […] PCNA was a recombinant protein purified using standard methods known to one skilled in the art using an expression construct obtained from Dr. Toshiki Tsurimoto, Kyusyu University, Japan.
The volumes of PCNA and FAM-PL were adjusted to ensure that the final concentration of PCNA was 200 nM and FAM-PL was 10 nM. Assays were carried out in 384 well plates in a total volume of about 20-30 μL. […] Fluorescence measurements were made immediately after dilution in the assay plate. […] FP values (P) were calculated in millipolarization units (mP),
where I∥ and I⊥ are the emission intensities recorded, respectively, in the parallel and perpendicular directions relative to the plane of excitation polarization, after background intensity correction. G-factor values (G) for the fluorescein spectral window were measured using 1 nM fluorescein.
Alternatively, the fluorescent polarization assay can be carried out as described in the following. […] Briefly, 20 μl of the assay solution was transferred into each well of a black 384-well plate using Wellmate (Matrix). […] The negative control in each plate was DMSO, whereas the positive control was unlabeled PL-peptide as a self-competitor. […] FP values were calculated in millipolarization units. All data processing was performed using in-house programs in the Pipeline Pilot (Accelrys, version 7.0.1). The quality of the primary screen was assessed by Z-prime and other screening quality metrics.

T1 sequence (P12004 whole entry): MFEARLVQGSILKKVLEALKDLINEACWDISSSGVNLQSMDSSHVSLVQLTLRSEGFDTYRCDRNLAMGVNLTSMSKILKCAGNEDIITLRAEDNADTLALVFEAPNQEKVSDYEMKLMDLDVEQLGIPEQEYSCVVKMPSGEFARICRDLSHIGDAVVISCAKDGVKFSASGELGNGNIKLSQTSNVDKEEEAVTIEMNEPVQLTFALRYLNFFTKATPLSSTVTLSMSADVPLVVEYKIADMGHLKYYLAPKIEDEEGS

Going from `O=C(Cc1cc(I)c(Oc2ccc(O)c(I)c2)c(I)c1)NC1CCCCC1` [MLAE-029-2, N-Cyclohexyl-2-(4-(4-hydroxy-3-iodophenoxy)-3,5-diiodophenyl)acetamide] to `N[C@H](CO)Cc1cc(I)c(Oc2ccc(O)c(I)c2)c(I)c1` [MLAG-083, (S)-4-(4-(2-amino-3-hydroxypropyl)-2,6-diiodophenoxy)-2-iodophenol], the pIC50 rises from less than 4.30 to 6.22. The second is the more potent here.

First: Cc1noc(C)c1S(=O)(=O)N[C@H](CO)Cc1cc(I)c(Oc2ccc(O)cc2)c(I)c1 [MLAE-061, (S)—N-(1-Hydroxy-3-(4-(4-hydroxyphenoxy)-3,5-diiodophenyl)propan-2-yl)-3,5-dimethylisoxazole-4-sulfonamide]
Second: COc1ccc(S(=O)(=O)N[C@H](CO)Cc2cc(I)c(Oc3ccc(O)cc3)c(I)c2)cc1 [MLAE-058-3, (S)—N-(1-Hydroxy-3-(4-(4-hydroxyphenoxy)-3,5-diiodophenyl)propan-2-yl)-4-methoxybenzenesulfonamide]
The pIC50 of the first is 0.21 log units lower: 4.80 for the first, 5.01 for the second. The second is the more potent here.

`COc1ccc(NC(=O)Cc2cc(I)c(Oc3ccc(O)c(I)c3)c(I)c2)cc1` [MLAE-029-7, 2-(4-(4-Hydroxy-3-iodophenoxy)-3,5-diiodophenyl)-N-(4-methoxyphenyl)acetamide] and `O=C(Cc1cc(I)c(Oc2ccc(O)c(I)c2)c(I)c1)NCCc1ccccc1` [MLAE-029-3, 2-(4-(4-hydroxy-3-iodophenoxy)-3,5-diiodophenyl)-N-phenethylacetamide] cannot be ordered by pIC50: less than 4.30 for the first, less than 4.30 for the second.

Compared with `CNC(=O)CCc1cc(I)c(Oc2ccc(OC)cc2)c(I)c1` [MLAE-040, 3-(3,5-Diiodo-4-(4-methoxyphenoxy)phenyl)-N-methylpropanamide], `COc1ccc(Oc2c(I)cc(CC(=O)NS(C)(=O)=O)cc2I)cc1` [MLAE-046, 2-(3,5-Diiodo-4-(4-methoxyphenoxy)phenyl)-N-(methylsulfonyl)acetamide] is lower in pIC50: 4.77 for the first, less than 4.30 for the second. The first is the more potent here.

`O=C1CN(C(=O)Cc2cc(I)c(Oc3ccc(O)cc3)c(I)c2)CCN1` [MLAE-048, 4-(2-(4-(4-Hydroxyphenoxy)-3,5-diiodophenyl)acetyl)piperazin-2-one] and `CN(C)C(=O)Cc1cc(I)c(Oc2ccc(O)cc2)c(I)c1` [MLAG-066-2, 2-(4-(4-hydroxyphenoxy)-3,5-diiodophenyl)-N,N-dimethylacetamide] are within 0.2 log units of each other in pIC50: 5.04 for the first, 5.12 for the second.

Going from `O=C(CCc1cc(I)c(Oc2ccc(O)cc2)c(I)c1)N1CCCCC1` [MLAE-041, 3-(4-(4-hydroxyphenoxy)-3,5-diiodophenyl)-1-(piperidin-1-yl)propan-1-one] to `COCCCNC(=O)CCc1cc(I)c(Oc2ccc(O)cc2)c(I)c1` [MLAE-054-4, 3-(4-(4-Hydroxyphenoxy)-3,5-diiodophenyl)-N-(3-methoxypropyl)propanamide], the pIC50 falls from 5.62 to 5.28 (0.34 log units). The first is the more potent here.

`Cc1cc(Oc2c(I)cc(C[C@H](N)CO)cc2I)ccc1O` [MLAG-093, (S)-4-(4-(2-amino-3-hydroxypropyl)-2,6-diiodophenoxy)-2-methylphenol] and `NC[C@@H](N)Cc1cc(I)c(Oc2ccc(O)cc2)c(I)c1` [SWUA_017, (S)-4-(4-(2,3-diaminopropyl)-2,6-diiodophenoxy)phenol] are within 0.2 log units of each other in pIC50: 5.74 for the first, 5.60 for the second.

`N[C@H](CNC(=O)NCc1ccccc1)Cc1cc(I)c(Oc2ccc(O)cc2)c(I)c1` [MLAF-085, (S)-1-(2-amino-3-(4-(4-hydroxyphenoxy)-3,5-diiodophenyl)propyl)-3-benzylurea] and `CS(=O)(=O)NC(=O)CCc1cc(I)c(Oc2ccc(O)c(C(=O)NCc3ccccc3)c2)c(I)c1` [MLAF-013, N-Benzyl-5-(2,6-diiodo-4-(3-(methylsulfonamido)-3-oxopropyl)phenoxy)-2-hydroxybenzamide] are within 0.2 log units of each other in pIC50: 6.00 for the first, 5.85 for the second.

same assay, conditions: incubation time 5 min (FIGS. 15-18); read-out: IC50 in fluorescent polarization assay

Compound `Oc1ccc(Oc2c(I)cc(C[C@H]3C[NH2+][Pt-2]([Cl])([Cl])[NH2+]3)cc2I)cc1` [dichloro((S)-4-(4-(2,3-diaminopropyl)-2,6-diiodophenoxy)phenol)platinum(II)] has a pIC50 of roughly 6.57.

same assay, conditions: unlabeled PL-peptide against tagged PL-peptide; data not shown; read-out: IC50 in self-competition

Work on “SAVLQKKITDYFHPKK [PL peptide, reference compound]” yielded a pIC50 of roughly 7.00.

Source: patent US20140288077A1, “SUBSTITUTED 4-PHENOXYPHENOL ANALOGS AS MODULATORS OF PROLIFERATING CELL NUCLEAR ANTIGEN ACTIVITY” (ST. JUDE CHILDREN'S RESEARCH HOSPITAL, priority 2011, published 2014)
